# Data published in US9598433B2, “Hepatitis C virus inhibitors” (BRISTOL-MYERS SQUIBB COMPANY, priority 2012, dated 2017).
# Assays:
# [1] = system: HCV genotype 1a (H77 strain) replicon in HUH-7 cells; assay: HCV replicon luciferase reporter assay, genotype 1a; type: cell-based; conditions: Hepatitis C virus, 72 h, genotype 1a replicon, 3 days incubation, read-out: LE_1a (EC50, range)
# Excerpt: (§1) An HCV replicon whole cell system was established as described by Lohmann V, Korner F, Koch J, Herian U, Theilmann L, Bartenschlager R., Science 285(5424):110-3 (1999) and modified to introduce a luciferase reporter, as first described by Krieger et al (Krieger N, Lohmann V, and Bartenschlager R, J. Virol. 75(10):4614-4624 (2001)). CDNA encoding a humanized form of the Renilla luciferase gene and a linker sequence fused directly to the 3′-end of the luciferase gene were introduced into the replicon construct using an Ascl restriction site located in core, directly upstream of the neomycin marker gene. The adaptive mutation at position 1179 (serine to isoleucine) was also introduced (Blight K J, Kolykhalov, A A, Rice, C M, Science 290(5498):1972-1974). A stable cell line constitutively expressing this HCV replicon construct was generated by first linearizing plasmid DNAs with ScaI. RNA transcripts were synthesized in vitro using the T7 MegaScript transcription kit (Ambion, Austin, Tex.) according to manufacturer's directions. In vitro transcripts of the cDNA were transfected into the human hepatoma cell line, HUH-7. […] Resulting cell lines were characterized for positive and negative strand RNA production and protein production over time.
# A stable HCV replicon luciferase reporter cell line representing the genotype 1a H77 strain (Yanagi M, Purcell R H, Emerson S U, et al. Transcripts from a single full-length cDNA clone of hepatitis C virus are infectious when directly transfected into the liver of a chimpanzee. Proc Natl Acad Sci USA 1997; 94(16):8738-8743) was generated as described previously for the genotype 1b(Con1) replicon luciferase cell line. The replicon construct was modified by introducing mutations were introduced into the genes encoding the NS3 helicase domain (proline replaced by leucine at position 1496) and NS5A (serine to isoleucine at position 2204) to improve replication in cell culture.
# (§2) HCV replicon luciferase assays were developed to monitor the inhibitory effects of compounds described in the disclosure on HCV genotypes 1a and 1b viral replication. HUH-7 cells, constitutively expressing the HCV replicon, were grown in Dulbecco's Modified Eagle Media (DMEM) (Gibco-BRL) containing 10% Fetal calf serum (FCS) (Sigma) and 1 mg/mL G418 (Gibco-BRL). Compounds were serially diluted 3 folds in DMSO for a twenty-point titration and subsequently transferred to sterile 384-well tissue-culture treated plates (Corning cat #3571). The plates were then seeded with 50 μL of cells at a density of 3.0×10^3 cells/well in DMEM containing 4% FCS (final DMSO concentration at 0.5%). After 3 days incubation at 37° C., cells were analyzed for Renilla Luciferase activity using the EnduRen as substrate (Promega cat #E6485). The EnduRen substrate was diluted in DMEM and then added to the plates to a final concentration of 7.5 μM. The plates were incubated for 2 hrs at 37° C. and then read immediately for 30 seconds with Viewlux Imager (PerkinElmer) using a luminescence program. To assess cytotoxicity of compounds, CC50 values were generated by multiplexing the EnduRen-containing plates with Cell Titer-Blue (Promega, cat # G8082). Cell-Titer Blue (3 μL) was added to each well and incubated for 8 hrs at 37° C. The fluorescence signal from each well was read, with an excitation wavelength at 525/10 nm and an emission wavelength of 598/10 nm, using the Viewlux Imager.
# (§3) The EC50 values for compounds were calculated by using a four-parameter logistic equation: y=A+((B−A)/(1+((C/x)^D))), where A and B denotes minimal and maximal % inhibition, respectively, C is the EC50, D is the hill slope and x represents compound concentration.
# [2] = system: HCV genotype 1b (Con1) replicon in HUH-7 cells; assay: HCV replicon luciferase reporter assay, genotype 1b; type: cell-based; conditions: Hepatitis C virus, 72 h, genotype 1b replicon, 3 days incubation, read-out: LE_1b (EC50, range)
# Excerpt: as §1, §2, §3
SMILES,EC50 [1],EC50 [2]
"CC[C@@H]1O[C@H](C)CC/C=C\[C@@H]2C[C@@]2(C(=O)NS(=O)(=O)C2(C)CC2)NC(=O)[C@@H]2C[C@@H](Oc3nc(OC)cc4cc(OC)ccc34)CN2C(=O)[C@H]1NC(=O)OC(C)(C)C(F)(F)F [Compound 1002, 1,1,1-trifluoro-2-methylpropan-2-yl ((2R,6S,7S,9R,13aS,14aR,16aS,Z)-2-((3,6-dimethoxyisoquinolin-1-yl)oxy)-7-ethyl-9-methyl-14a-(((1-methylcyclopropyl)sulfonyl)carbamoyl)-5,16-dioxo-2,3,5,6,7,9,10,11,13a,14,14a,15,16,16a-tetradecahydro-1H-cyclopropa[i]pyrrolo[1,2-e][1,5,8]oxadiazacyclopentadecin-6-yl)carbamate]",0.51 to 1 nM,0.1 to 0.5 nM
"C[C@@H]1CC/C=C\[C@@H]2C[C@@]2(C(=O)NS(=O)(=O)C2(C)CC2)NC(=O)[C@@H]2C[C@@H](Oc3nc4c(c5ccccc35)CCCO4)CN2C(=O)[C@@H](NC(=O)OC(C)(C)C(F)(F)F)[C@H](C)O1 [Compound 2305, 1,1,1-trifluoro-2-methylpropan-2-yl ((2R,6S,7S,9R,13aS,14aR,16aS,Z)-2-((2,3-dihydro-1H-pyrano[2,3-c]isoquinolin-6-yl)oxy)-7,9-dimethyl-14a-(((1-methylcyclopropyl)sulfonyl)carbamoyl)-5,16-dioxo-2,3,5,6,7,9,10,11,13a,14,14a,15,16,16a-tetradecahydro-1H-cyclopropa[i]pyrrolo[1,2-e][1,5,8]oxadiazacyclopentadecin-6-yl)carbamate]",0.51 to 1 nM,0.51 to 1 nM
"COc1ccc2c(O[C@@H]3C[C@H]4C(=O)N[C@]5(C(=O)NS(=O)(=O)C6(C)CC6)C[C@H]5/C=C\CC[C@@H](C)O[C@@H](C)[C@H](NC(=O)OC(C)(C)C(C)(F)F)C(=O)N4C3)nc(-c3ccc(OC(C)C)cn3)cc2c1 [Compound 2012, 3,3-difluoro-2-methylbutan-2-yl ((2R,6S,7S,9R,13a5,14aR,16aS,Z)-2-((3-(5-isopropoxypyridin-2-yl)-6-methoxyisoquinolin-1-yl)oxy)-7,9-dimethyl-14a-(((1-methylcyclopropyl)sulfonyl)carbamoyl)-5,16-dioxo-2,3,5,6,7,9,10,11,13a,14,14a,15,16,16a-tetradecahydro-1H-cyclopropa[i]pyrrolo[1,2-e][1,5,8]oxadiazacyclopentadecin-6-yl)carbamate]",0.1 to 0.5 nM,0.1 to 0.5 nM
"COc1cnc(O[C@@H]2C[C@H]3C(=O)N[C@]4(C(=O)NS(=O)(=O)C5(CF)CC5)C[C@H]4/C=C\CC[C@@H](C)O[C@@H](C)[C@H](NC(=O)OC(C)(C)C(F)(F)F)C(=O)N3C2)c2ccccc12 [Compound 2015, 1,1,1-trifluoro-2-methylpropan-2-yl ((2R,6S,7S,9R,13a5,14aR,16aS,Z)-14a-(((1-(fluoromethyl)cyclopropyl)sulfonyl)carbamoyl)-2-((4-methoxyisoquinolin-1-yl)oxy)-7,9-dimethyl-5,16-dioxo-2,3,5,6,7,9,10,11,13a,14,14a,15,16,16a-tetradecahydro-1H-cyclopropa[i]pyrrolo[1,2-e][1,5,8]oxadiazacyclopentadecin-6-yl)carbamate]",1.01 to 5 nM,0.51 to 1 nM
"CC[C@@H]1O[C@H](C)CC/C=C\[C@@H]2C[C@@]2(C(=O)NS(=O)(=O)C2(C)CC2)NC(=O)[C@@H]2C[C@@H](Oc3ncc(OC)c4ccc(F)cc34)CN2C(=O)[C@H]1NC(=O)OC(C)(C)C(C)(F)F [Compound 2605, 3,3-difluoro-2-methylbutan-2-yl ((2R,6S,7S,9R,13aS,14aR,16aS,Z)-7-ethyl-2-((7-fluoro-4-methoxyisoquinolin-1-yl)oxy)-9-methyl-14a-(((1-methylcyclopropyl)sulfonyl)carbamoyl)-5,16-dioxo-2,3,5,6,7,9,10,11,13a,14,14a,15,16,16a-tetradecahydro-1H-cyclopropa[i]pyrrolo[1,2-e][1,5,8]oxadiazacyclopentadecin-6-yl)carbamate]",0.51 to 1 nM,0.1 to 0.5 nM
"COc1cnc(O[C@@H]2C[C@H]3C(=O)N[C@]4(C(=O)NS(=O)(=O)C5(C)CC5)C[C@H]4/C=C\CC[C@@H](C)O[C@@H](C)[C@H](NC(=O)OC(C)(C)C(F)(F)F)C(=O)N3C2)c2ccccc12 [Compound 2003, 1,1,1-trifluoro-2-methylpropan-2-yl ((2R,6S,7S,9R,13aS,14aR,16aS,Z)-2-((4-methoxyisoquinolin-1-yl)oxy)-7,9-dimethyl-14a-(((1-methylcyclopropyl)sulfonyl)carbamoyl)-5,16-dioxo-2,3,5,6,7,9,10,11,13a,14,14a,15,16,16a-tetradecahydro-1H-cyclopropa[i]pyrrolo[1,2-e][1,5,8]oxadiazacyclopentadecin-6-yl)carbamate]",0.51 to 1 nM,0.1 to 0.5 nM
"COc1cc2ccnc(O[C@@H]3C[C@H]4C(=O)N[C@]5(C(=O)NS(=O)(=O)C6(C)CC6)C[C@H]5/C=C\CC[C@@H](C)O[C@@H](C)[C@H](NC(=O)OC(C)(C)C(F)(F)F)C(=O)N4C3)c2cc1F [Compound 2005, 1,1,1-trifluoro-2-methylpropan-2-yl ((2R,6S,7S,9R,13aS,14aR,16aS,Z)-2-((7-fluoro-6-methoxyisoquinolin-1-yl)oxy)-7,9-dimethyl-14a-(((1-methylcyclopropyl)sulfonyl)carbamoyl)-5,16-dioxo-2,3,5,6,7,9,10,11,13a,14,14a,15,16,16a-tetradecahydro-1H-cyclopropa[i]pyrrolo[1,2-e][1,5,8]oxadiazacyclopentadecin-6-yl)carbamate]",1.01 to 5 nM,0.1 to 0.5 nM
"CC[C@@H]1O[C@H](C)CC/C=C\[C@@H]2C[C@@]2(C(=O)NS(=O)(=O)C2(C)CC2)NC(=O)[C@@H]2C[C@@H](Oc3nccc4c5c(ccc34)OCCO5)CN2C(=O)[C@H]1NC(=O)OC(C)(C)C(C)(F)F [Compound 2609, 3,3-difluoro-2-methylbutan-2-yl ((2R,6S,7S,9R,13aS,14aR,16aS,Z)-2-((2,3-dihydro-[1,4]dioxino[2,3-f]isoquinolin-7-yl)oxy)-7-ethyl-9-methyl-14a-(((1-methylcyclopropyl)sulfonyl)carbamoyl)-5,16-dioxo-2,3,5,6,7,9,10,11,13a,14,14a,15,16,16a-tetradecahydro-1H-cyclopropa[i]pyrrolo[1,2-e][1,5,8]oxadiazacyclopentadecin-6-yl)carbamate]",1.01 to 5 nM,0.51 to 1 nM
"CC[C@@H]1O[C@H](C)CC/C=C\[C@@H]2C[C@@]2(C(=O)NS(=O)(=O)C2(C)CC2)NC(=O)[C@@H]2C[C@@H](Oc3nc4c(c5cc(OC)ccc35)CCCO4)CN2C(=O)[C@H]1NC(=O)OC(C)(C)C(F)(F)F [Compound 2307, 1,1,1-trifluoro-2-methylpropan-2-yl ((2R,6S,7S,9R,13aS,14aR,16aS,Z)-7-ethyl-2-((9-methoxy-2,3-dihydro-1H-pyrano[2,3-c]isoquinolin-6-yl)oxy)-9-methyl-14a-(((1-methylcyclopropyl)sulfonyl)carbamoyl)-5,16-dioxo-2,3,5,6,7,9,10,11,13a,14,14a,15,16,16a-tetradecahydro-1H-cyclopropa[i]pyrrolo[1,2-e][1,5,8]oxadiazacyclopentadecin-6-yl)carbamate]",0.1 to 0.5 nM,0.1 to 0.5 nM
